Laboratory results: article PMC8041433 (Environmental Health Perspectives, 2021)
Several values for one entry are separate records, joined by “and”; a condition that tells them apart may be missing. Equal values may be shown once. Where a name gives a salt, the structure may show the parent alone. Read-outs that look alike come from different tables or passages of the source.

Assays:
[1] = target: AChE in neural stem cell spheroids (Homo sapiens, UniProt P22303); test: cell-based; conditions: for IC50: potency (IC50)
AChE in neural stem cell spheroids, sequence (P22303 32-614): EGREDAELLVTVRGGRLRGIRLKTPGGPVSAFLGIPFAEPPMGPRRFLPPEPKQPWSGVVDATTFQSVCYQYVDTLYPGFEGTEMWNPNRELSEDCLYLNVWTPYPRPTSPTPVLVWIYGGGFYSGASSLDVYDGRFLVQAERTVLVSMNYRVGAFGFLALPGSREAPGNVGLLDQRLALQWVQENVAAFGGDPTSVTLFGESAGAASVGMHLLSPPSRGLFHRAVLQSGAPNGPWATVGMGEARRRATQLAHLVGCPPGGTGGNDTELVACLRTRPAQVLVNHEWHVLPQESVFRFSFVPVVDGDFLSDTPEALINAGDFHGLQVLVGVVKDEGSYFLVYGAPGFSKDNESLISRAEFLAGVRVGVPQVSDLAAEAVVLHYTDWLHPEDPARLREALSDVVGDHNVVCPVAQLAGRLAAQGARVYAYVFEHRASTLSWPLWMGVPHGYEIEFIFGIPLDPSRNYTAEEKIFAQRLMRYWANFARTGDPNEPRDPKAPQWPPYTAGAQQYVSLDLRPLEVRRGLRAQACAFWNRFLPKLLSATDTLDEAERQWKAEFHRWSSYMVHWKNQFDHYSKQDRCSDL

[2] = target: AChE in neural stem cells (Homo sapiens, UniProt P22303); test: cell-based
AChE in neural stem cells, sequence (P22303 32-614): as above

[3] = target: T1, recombinant human AChE (Homo sapiens, UniProt P22303); as to IR or R: key: Reversible (R); Irreversible (IR); ND, not detected in enzyme-based AChE inhibition assay from current study
T1 sequence (P22303 32-614): as above

[4] = target: T1, recombinant human AChE; test: biochemical
[5] = target: T1, recombinant human AChE; test: biochemical; remark: listed apart in the source
[6] = target: AChE in SH-SY5Y spheroids (Homo sapiens, UniProt P22303); test: cell-based
AChE in SH-SY5Y spheroids, sequence (P22303 32-614): as above

[7] = target: T1, recombinant human AChE; test: biochemical; assay type: biochemical; conditions: for AC50: AC50 (uM)
[8] = target: T1, recombinant human AChE; test: biochemical; remark: listed apart in the source
[9] = target: AChE in SH-SY5Y cells (Homo sapiens, UniProt P22303); test: cell-based
AChE in SH-SY5Y cells, sequence (P22303 32-614): as above

[10] = Neural stem cell spheroid (24 h)
[11] = Neural stem cell spheroid (48 h)
[12] = potency (IC50), SH-SY5Y spheroids (24 h)
[13] = potency (IC50), SH-SY5Y spheroids (48 h)
[14] = potency (IC50), Enzyme with microsomes
[15] = potency (IC50), SH-SY5Y cells monolayer
[16] = read-out: potency (IC50), SH-SY5Y spheroids (48 h)

CNC(=O)Oc1cccc2c1OC(C)(C)O2 [Bendiocarb]
IC50 [1, 10]: 45.2 ± 10.3 µM
IC50 [1, 11]: 47.1 µM
IC50 [2]: 46.2 ± 3.12 µM
CC-v2 (curve classes) [3]: -1.1
CC-v2 (curve classes) [4]: -1.1
IC50 ([4]; potency (IC50), Enzyme): 0.51 ± 0.03 µM
IC50 [5]: 0.92 ± 0.06 µM
IC50 [6, 12]: 44.7 ± 19.4 µM
IC50 [6, 13]: 54.1 ± 7.44 µM
IR or R [7]: R
AC50 [7]: 70.3 µM (2×) and 78.9 µM and 88.5 µM (2×) and 55.9 µM and 62.7 µM
IC50 [8, 14]: 0.88 µM
CC-v2 (curve classes) [9]: -1.1
IC50 [9, 15]: 1.07 ± 0.06 µM

CN1C(=O)COc2c(C(=O)NC3CN4CCC3CC4)cc(Cl)cc21 (stereo not shown) [Azasetron hydrochloride, reference compound]
IC50 [1, 10]: 16.5 µM
IC50 [1, 11]: 18.8 µM
IC50 [2]: 6.88 µM
CC-v2 (curve classes) [3]: 4
Efficacy [3]: 0
CC-v2 (curve classes) [4]: -2.2
Efficacy [4]: -34.351
IC50 ([4]; IC50 (uM)): 30.9 µM
IC50 ([4]; potency (IC50), Enzyme): 7.72 µM
IC50 [5]: 8.98 ± 0.61 µM
IC50 [6, 12]: 9.64 µM
IC50 [6, 13]: 6.85 µM
IR or R [7]: R
AC50 [7]: 17.2 µM (2×) and 3.43 µM and 21.7 µM and 19.3 µM (2×) and 12.2 µM (2×) and 15.3 µM
IC50 [8, 14]: 8.97 µM
CC-v2 (curve classes) [9]: -2.1 and -2.2
IC50 ([9]; IC50 (uM)): 38.9 µM and 34.7 µM and 17.4 µM
IC50 [9, 15]: 6.6 µM

COP(=O)(OC)SCn1c(=O)oc2cc(Cl)cnc21 [Azamethiphos]
IC50 [1, 10]: 1.82 ± 0.76 µM
IC50 [1, 11]: 3.08 ± 0.77 µM
IC50 [2]: 4.79 ± 0.31 µM
CC-v2 (curve classes) [3]: -2.1
Efficacy [3]: -92.198
CC-v2 (curve classes) [4]: -1.1
Efficacy [4]: -98.261
IC50 ([4]; potency (IC50), Enzyme): 1.91 ± 0.26 µM
IC50 [5]: 3.81 ± 0.25 µM
IC50 [6, 12]: 4.05 ± 2.65 µM
IC50 [6, 13]: 3.3 ± 0.59 µM
AC50 [7]: 11.1 µM and 15.7 µM and 14 µM and 39.5 µM and 35.2 µM and 17.7 µM and 7.03 µM and 7.89 µM and 9.93 µM
IC50 [8, 14]: 6.34 ± 1.18 µM
CC-v2 (curve classes) [9]: -1.1
IC50 ([9]; IC50 (uM)): 3.56 µM and 3.17 µM
IC50 [9, 15]: 2.81 ± 0.32 µM

CCOP(=S)(OCC)OC(Cl)C(Cl)(Cl)Cl (stereo not shown) [Chlorethoxyfos]
IC50 [1, 10]: 42.8 µM
IC50 [1, 11]: 47 µM
IC50 [2]: 46.2 µM
CC-v2 (curve classes) [3]: -1.1
Efficacy [3]: -100.975
CC-v2 (curve classes) [4]: -2.1
Efficacy [4]: -89.198
IC50 ([4]; IC50 (uM)): 79.6 µM
IC50 ([4]; potency (IC50), Enzyme): 60.4 µM
IC50 [5]: 65.2 ± 4.42 µM
IC50 [6, 12]: 33.2 µM
IC50 [6, 16]: 37.3 µM
AC50 [7]: 1.57 µM
IC50 ([8]; IC50 (uM)): 28.3 µM
IC50 [8, 14]: 5.86 µM
CC-v2 (curve classes) [9]: -2.1
IC50 ([9]; IC50 (uM)): 35.6 µM
IC50 [9, 15]: 28.3 µM
IC50 ([9]; read-out: IC50): 31.7 µM

O=C(c1ccc(OCCN2CCCCC2)cc1)c1c(-c2ccc(O)cc2)sc2cc(O)ccc12 [Raloxifene hydrochloride, reference compound]
IC50 [1, 10]: 6.29 ± 0.72 µM
IC50 [1, 11]: 9.85 µM
IC50 [2]: 14.1 ± 1.61 µM
CC-v2 (curve classes) [3]: -1.1
CC-v2 (curve classes) [4]: -1.1
IC50 ([4]; potency (IC50), Enzyme): 2.14 ± 0.13 µM
IC50 [5]: 3.43 ± 0.58 µM
IC50 [6, 12]: 1.03 ± 0.78 µM
IC50 [6, 13]: 4.19 ± 0.94 µM
IR or R [7]: R
AC50 ([7]; activity_5): 1.57 µM and 2.22 µM and 1.11 µM
AC50 ([7]; activity_10): 1.57 µM and 1.4 µM and 3.14 µM
AC50 ([7]; activity_60): 1.25 µM and 1.11 µM and 2.22 µM
IC50 [8, 14]: 3.42 ± 0.58 µM
CC-v2 (curve classes) [9]: -1.1 and -2.1
IC50 ([9]; IC50 (uM)): 27.5 µM and 25.2 µM and 31.7 µM
IC50 [9, 15]: 4.29 ± 0.59 µM

CNC(=C[N+](=O)[O-])NCCSCc1csc(CN(C)C)n1 [Nizatidine, reference compound]
potency (IC50), Neural stem cell spheroid (24 h) [1]: Inactive
IC50 [2]: 18.6 ± 1.21 µM
CC-v2 (curve classes) [3]: 4
CC-v2 (curve classes) [4]: -2.1
IC50 ([4]; IC50 (uM)): 35.6 µM and 27.5 µM
IC50 ([4]; potency (IC50), Enzyme): 10.5 ± 0.68 µM
IC50 [5]: 15.6 ± 3.57 µM
IC50 [6, 12]: 7.05 ± 1.96 µM
IC50 [6, 13]: 12.2 ± 1.41 µM
IR or R [7]: R
AC50 ([7]; activity_5): 24.3 µM and 27.3 µM and 6.85 µM
AC50 ([7]; activity_10): 21.7 µM and 27.3 µM and 30.6 µM
AC50 ([7]; activity_60): 27.3 µM and 19.3 µM and 24.3 µM
IC50 [8, 14]: 20.1 ± 1.36 µM
CC-v2 (curve classes) [9]: -1.1 and -2.1
IC50 ([9]; IC50 (uM)): 14.2 µM and 12.6 µM and 12.3 µM and 13.8 µM and 11.2 µM
IC50 [9, 15]: 7.68 µM

CCOP(=O)(Sc1ccccc1)Sc1ccccc1 [Edifenphos]
IC50 [1, 10]: 0.88 ± 0.1 µM
IC50 [1, 11]: 1.21 ± 0.17 µM
IC50 [2]: 1.31 ± 0.23 µM
CC-v2 (curve classes) [3]: -3
Efficacy [3]: -113.282
CC-v2 (curve classes) [4]: -2.1
Efficacy [4]: -122.577
IC50 ([4]; potency (IC50), Enzyme): 4.79 ± 0.31 µM
IC50 [5]: 3.03 ± 0.2 µM
IC50 [6, 12]: 4.79 ± 1.57 µM
IC50 [6, 13]: 2.08 ± 0.37 µM
AC50 [7]: 28 µM and 62.7 µM and 31.4 µM (2×) and 25 µM and 49.8 µM and 35.2 µM
IC50 [8, 14]: 7.31 ± 0.49 µM
CC-v2 (curve classes) [9]: -1.1
IC50 ([9]; IC50 (uM)): 3.99 µM and 3.17 µM and 5.02 µM
IC50 [9, 15]: 1.73 ± 0.43 µM

CCOP(=O)(OCC)Oc1cc(C)nc(C(C)C)n1 [Diazoxon]
IC50 [1, 10]: 0.22 µM
IC50 [1, 11]: 0.39 ± 0.07 µM
IC50 [2]: 0.24 ± 0.04 µM
CC-v2 (curve classes) [3]: -1.1
Efficacy [3]: -95.678
CC-v2 (curve classes) [4]: -1.1
Efficacy [4]: -95.835
IC50 ([4]; potency (IC50), Enzyme): 1.12 ± 0.12 µM
IC50 [5]: 2.25 ± 0.26 µM
IC50 [6, 12]: 2.3 ± 0.96 µM
IC50 [6, 16]: 0.5 µM
AC50 [7]: 44.6 µM
IC50 [8, 14]: 3.69 ± 0.24 µM
CC-v2 (curve classes) [9]: -1.1
IC50 ([9]; IC50 (uM)): 0.143 µM and 0.179 µM and 0.201 µM
IC50 [9, 15]: 0.26 ± 0.03 µM

COP(=S)(Oc1cc(Cl)c(Br)cc1Cl)c1ccccc1 (stereo not shown) [Leptophos]
IC50 [1, 10]: 36.5 µM
IC50 [1, 11]: 69 µM
IC50 [2]: 58.1 µM
CC-v2 (curve classes) [3]: -1.1
Efficacy [3]: -83.877
CC-v2 (curve classes) [4]: -3
Efficacy [4]: -64.129
IC50 ([4]; potency (IC50), Enzyme): 46.4 µM
IC50 [5]: 48 ± 3.13 µM
IC50 [6, 12]: 54.6 µM
IC50 [6, 13]: 44.6 µM
AC50 [7]: 31.4 µM and 62.7 µM (3×) and 39.5 µM and 35.2 µM and 55.9 µM
IC50 [8, 14]: 2.31 µM
CC-v2 (curve classes) [9]: -2.1
IC50 ([9]; IC50 (uM)): 63.3 µM and 71 µM and 79.6 µM
IC50 [9, 15]: 28 µM

CCOP(=S)(OCC)Oc1cc(-c2ccccc2)on1 [Isoxathion]
IC50 [1, 10]: 0.73 µM
IC50 [1, 11]: 1.68 µM
IC50 [2]: 6.1 µM
CC-v2 (curve classes) [3]: -1.1
Efficacy [3]: -99.076
CC-v2 (curve classes) [4]: -3
Efficacy [4]: -107.392
IC50 ([4]; potency (IC50), Enzyme): 44.4 µM
IC50 [5]: 85.3 ± 5.56 µM
IC50 [6, 12]: 27 µM
IC50 [6, 13]: 17.7 µM
AC50 [7]: 55.9 µM (2×) and 49.8 µM (3×) and 44.4 µM (2×)
IC50 [8, 14]: 2.11 µM
CC-v2 (curve classes) [9]: -2.1
IC50 ([9]; IC50 (uM)): 63.3 µM and 79.6 µM
IC50 [9, 15]: 17 µM

Cl.Clc1cc(Cl)c2c(c1)N=C1CCCCCN1C2 [PharmaGSID_47259]
IC50 [1, 10]: 13.5 ± 9.25 µM
IC50 [1, 11]: 22 µM
IC50 [2]: 10.7 ± 2.66 µM
CC-v2 (curve classes) [3]: -1.1
Efficacy [3]: -90.391
CC-v2 (curve classes) [4]: -1.1
Efficacy [4]: -94.138
IC50 ([4]; potency (IC50), Enzyme): 0.54 ± 0.06 µM
IC50 [5]: 1.54 ± 0.18 µM
IC50 [6, 12]: 2.24 ± 2.76 µM
IC50 [6, 13]: 0.85 ± 0.21 µM
IR or R [7]: R
AC50 ([7]; activity_5): 1.09 µM and 0.544 µM
AC50 ([7]; activity_10): 0.153 µM and 1.22 µM and 1.09 µM
AC50 ([7]; activity_60): 0.968 µM and 0.172 µM and 1.22 µM
IC50 [8, 14]: 1.79 ± 0.22 µM
CC-v2 (curve classes) [9]: -1.1
IC50 ([9]; IC50 (uM)): 0.776 µM and 0.692 µM
IC50 [9, 15]: 0.87 ± 0.18 µM
